Read-outs that look alike come from different tables or passages of the source.
How the values were obtained:
[1] = Population pharmacokinetic; type: in vivo, human; conditions: for AUC24,SS/Dose: AUC24,SS/total daily dose
[2] = cited from earlier work
25-gene IFN score = assay: Correlation of AUC24,SS with whole blood 25-gene IFN score; type: in vivo, human; conditions: subset (5) of CANDLE patients
serum IP-10 = assay: Correlation of AUC24,SS with serum CXCL10/IP-10 levels; type: in vivo, human; conditions: 189 observations in 18 patients, linear mixed model, p-value for slope 0.0002
[3] = 18 patients, 54 patient-years of exposure
[4] = popPK final model, 18 patients, oral

CCS(=O)(=O)N1CC(CC#N)(n2cc(-c3ncnc4[nH]ccc34)cn2)C1 [baricitinib, Baricitinib]
patients who developed BK viremia [3]: 44% | patients with Herpes Zoster [3]: 1 patient | deaths during the program (mean exposure 35.4 months): No deaths | most frequently reported TEAEs (over 54 patient-years): Upper respiratory tract infection | projected initial exposure (AUC24,SS) with proposed starting dose ([1]; 20–40kg, eGFR ≥120 mL/min/1.73 m^2, initial dose 6 mg/day BID): 1077 to 2688 nM·h | projected initial exposure (AUC24,SS) with proposed starting dose ([1]; <20kg, eGFR ≥120 mL/min/1.73 m^2, initial dose 6 mg/day TID): 1769 to 2112 nM·h | projected initial exposure (AUC24,SS) with proposed starting dose ([1]; >40kg, eGFR ≥120 mL/min/1.73 m^2, initial dose 8 mg/day BID): 1082 to 1958 nM·h | Covariate effect of GFR on Clearance, parameter for GFR-CL (%SEE) ([1]; CL/Ftypical=9.74×(eGFR/146.82)^0.444): 0.444 (24.8%) | Covariate effect of Weight on V/F, parameter for WTV-V (%SEE) ([1]; V/Ftypical = 67.1 × e^0.0192·(WTV−27.2)): 0.0192 (15.0%) | geometric mean AUC24,SS at clinically effective doses ([1]; all patients, final PK assessments): ~ 2388 nM*h | dose proportionality of PK ([1]; dosing range of 1–14 mg daily): dose linearity | AUC24,SS/Dose ([1]; eGFR ≥120 ml/min/1.73 m^2, 20–40kg (n=5), geometric mean (%CV)): 292 nM·h/mg | AUC24,SS/Dose ([1]; eGFR ≥120 ml/min/1.73 m^2, <20kg (n=2), geometric mean (%CV)): 322 nM·h/mg | AUC24,SS/Dose ([1]; eGFR ≥120 ml/min/1.73 m^2, >40kg (n=5), geometric mean (%CV)): 193 nM·h/mg | AUC ([1]; human, plasma, oral, 6 mg/day, AUC24,SS, eGFR <120 ml/min/1.73 m^2, <20kg (n=2), final PK visit, geometric mean (%CV)): 3.08 µM·h | CL/F ([1]; human, plasma, oral, 6.9 mg/day): 5.33 mL/min/kg | half-life ([1]; human, plasma, oral, 6.9 mg/day, t1/2, eGFR ≥120 ml/min/1.73 m^2, 20–40kg (n=5), final PK visit, geometric mean (%CV)): 5 h | CL/F ([1]; human, plasma, oral, 8 mg/day): 9.33 mL/min/kg | AUC ([1]; human, plasma, oral, 8 mg/day, AUC24,SS, eGFR ≥120 ml/min/1.73 m^2, <20kg (n=2), final PK visit, geometric mean (%CV)): 2.58 µM·h | Cmax ([1]; human, plasma, oral, 8 mg/day, eGFR ≥120 ml/min/1.73 m^2, <20kg (n=2), final PK visit, geometric mean (%CV)): 171 nM | half-life ([1]; human, plasma, oral, 8 mg/day, t1/2, eGFR ≥120 ml/min/1.73 m^2, <20kg (n=2), final PK visit, geometric mean (%CV)): 4.4 h | half-life ([1]; human, plasma, oral, 10 mg/day, t1/2, eGFR ≥120 ml/min/1.73 m^2, >40kg (n=5), final PK visit, geometric mean (%CV)): 7 h | AUC ([1]; human, plasma, oral, AUC24,SS, eGFR <120 ml/min/1.73 m^2, >40kg (n=3), final PK visit, geometric mean (%CV)): 2.53 µM·h | AUC ([1]; human, plasma, oral, AUC24,SS, eGFR ≥120 ml/min/1.73 m^2, 20–40kg (n=5), final PK visit, geometric mean (%CV)): 2.02 µM·h | AUC ([1]; human, plasma, oral, AUC24,SS, eGFR ≥120 ml/min/1.73 m^2, >40kg (n=5), final PK visit, geometric mean (%CV)): 1.94 µM·h | Cmax ([1]; human, plasma, oral, eGFR <120 ml/min/1.73 m^2, <20kg (n=2), final PK visit, geometric mean (%CV)): 229 nM | Cmax ([1]; human, plasma, oral, eGFR <120 ml/min/1.73 m^2, >40kg (n=3), final PK visit, geometric mean (%CV)): 180 nM | Cmax ([1]; human, plasma, oral, eGFR ≥120 ml/min/1.73 m^2, 20–40kg (n=5), final PK visit, geometric mean (%CV)): 150 nM | Cmax ([1]; human, plasma, oral, eGFR ≥120 ml/min/1.73 m^2, >40kg (n=5), final PK visit, geometric mean (%CV)): 136 nM | half-life ([1]; human, plasma, oral, estimated half-life, patient O3, >40 kg, eGFR 54–76 mL/min/1.73 m^2): 17 to 19.2 h | AUC ([1]; human, plasma, oral, geometric mean AUC24,SS at clinically effective doses, all patients, final PK assessments): 2.39 µM·h | half-life ([1]; human, plasma, oral, t1/2, eGFR <120 ml/min/1.73 m^2, <20kg (n=2), final PK visit, geometric mean (%CV)): 4.8 h | half-life ([1]; human, plasma, oral, t1/2, eGFR <120 ml/min/1.73 m^2, >40kg (n=3), final PK visit, geometric mean (%CV)): 7.8 h | Vd/F ([1]; human, plasma, po): 67.1 L | Absorption duration D1, population estimate (%SEE) [1, 4]: 0.971 (14.8%) hr | Apparent Clearance CL/F, population estimate (%SEE) [1, 4]: 9.74 (9.57%) L/hr | half-life ([2]; RA population): 12.5 h | half-life ([2]; healthy adult subjects): 10 h | effect of renal impairment on Cmax ([2]; moderate and severe renal impairment, ref data on file, Eli Lilly and Company): minimal effect | half-life ([2]; psoriasis patients): 12.8 h | AUC24,SS at which CANDLE patients normalized their IFN scores (25-gene IFN score): 1500 to 2000 nM·h | slope of correlation of AUC24,SS with serum IP-10 levels (serum IP-10): −0.197
